Patent publication US4544512A, “Tridecyloxy- or tetradecyloxy-propane derivatives” (Takeda Chemical Industries, Ltd., priority 1980, dated 1985)
In brackets after ≈: the same amount, converted by molar mass. Where two headings read alike, the source gives them in different places.

Columns and labels:
Type in all cases: cell-based
[1] = test system: Colletotrichum lagenarium; experiment: Antifungal activity, serial dilution method (MIC); settings: Colletotrichum orbiculare, read-out: MIC Colletotrichum lagenarium (cucumber anthracnose)
Alternaria solani = experiment: Antifungal activity, serial dilution method (MIC); settings: 1% glucose-bouillon agar medium, read-out: MIC Alternaria solani (potato early blight)
Leptosphaeria salvinii = experiment: Antifungal activity, serial dilution method (MIC); settings: Nakataea oryzae, read-out: MIC Leptosphaeria salvinii (rice stem rot)
Pyricularia oryzae = experiment: microbe, parasite or virus in culture; settings: read-out: MIC Pyricularia oryzae (rice blast)
Botrytis cinerea = experiment: Antifungal activity, serial dilution method (MIC); settings: read-out: MIC Botrytis cinerea (gray mold)
Cochliobolus miyabeanus = experiment: Antifungal activity, serial dilution method (MIC); settings: Bipolaris oryzae, read-out: MIC Cochliobolus miyabeanus (rice Helminthosporium leaf spot)
Gibberella fujikuroi = experiment: Antifungal activity, serial dilution method (MIC); settings: Fusarium fujikuroi; 1% glucose-bouillon agar medium; read-out: MIC Gibberella fujikuroi (rice Bakanae-disease)
[2] = test system: human promyelocytic leukemia HL-60 cells; experiment: Induced differentiation of human promyelocytic leukemia HL-60 cells; settings: six day incubation; optimal dose: C00021 1 μg/ml, drawing 22 4 μg/ml
Procedure: By employing soft-agar medium, incubation of human promyelocytic leukemia HL-60 cells was conducted in the presence of a drug at its optimal concentration. It was observed that the leukemia HL-60 cells were gradually changing into mature myeloid cells or phagocytic cells as the induced differentiation proceeded. After six day incubation, number of these cells was counted, and the respective ratios (%) relative to the total number of these cells were calculated, as shown in Table 3. Additionally stating, these changes were not observed under the conditions devoid of the drugs.

Tetrahymena pyriformis W = experiment: Antiprotozoal activity, broth dilution method (MIC); settings: 28° C., 44-48 hours, read-out: MIC against Tetrahymena pyriformis W
Procedure: Referring to the antiprotozoal activity given in Table 4, the microbial growth inhibiting activity (MIC) of each compound of this invention was assayed by the broth dilution method by incubating Tetrahymena pyriformis W strain as the test organism at 28° C. for 44-48 hours, using a test culture medium comprising 20 g of Tryptose peptine (Difco), 1 g of yeast extract, 2 g of glucose. 1,000 ml of distilled water and 10 ml of 1M phosphate buffer (pH 7.0).

[3] = test system: Cryptococcus unigtullatas; experiment: Antimycotic activity, paper disk inhibition zone; settings: 48 h, concentration of 3 mg/ml, paper disk 8 mm, 37° C., 2 days, read-out: Inhibition zone diameters
Procedure: Referring to the antimycotic activity presented in Table 5, Cryptococcus unigtullatas and others were used as the test microbes, a paper disk (8 mm in diameter) was immersed in an aqueous solution of each test compound having a concentration of 3 mg/ml, air dried and placed on an agar medium, then incubation was conducted at 37° C. for 2 days, and the diameter (mm) of the inhibition zone was measured.

[4] = test system: Trichophyton rubrum IFO 5467 (DT-63); experiment: Antitrichophyton activity, serial dilution method (MIC); settings: IFO5467, Sabouraud's agar medium
Procedure: (§1) Referring to the antitrichophyton activity shown in Table 7, MIC values of tested compounds were determined by the serial dilution method using Sabouraud's agar medium.

[5] = test system: Trichophyton mentagrophytes IFO (DT-66); experiment: as above; settings: Sabouraud's agar medium
Procedure: as §1

[6] = test system: mouse myeloid leukemia M1 cells; experiment: Induced differentiation of mouse myeloid leukemia M1 cells; settings: at optimal dose: C00019 1 μg/ml, drawing 20 2 μg/ml
Procedure: By employing soft-agar medium having similar components to those in Test Example 1, incubation of myeloid leukemia (M1) cells harvested from mice was conducted in the presence of the test compound in its optimal concentration. Observation on various biological and biochemical properties caused by induced differentiation was conducted. In Table 2 are given the results obtained by determination of the degree of the induced differentiation employing, as the indexes, among those properties, morphological changes (matured granulocytes, matured macrophages, others caused by changes in appearance of cells at the stage of differentiation),phagocytic activity (plastic small pieces.phagocytosis) and lysozyme activity. Additionally stating, these morphological changes were not observed under the conditions devoid of the drugs.

[7] = 1% glucose-bouillon agar medium

Molecule `CCCCCCCCCCCCCCOCC(COP(=O)([O-])OCC[N+](C)(C)C)OC` (centres unmarked) [Compound (A) R = C14 H29] has an MIC [1, 7] of 25 mg/L (≈ 53.5 µM), an MIC (Alternaria solani) of 100 mg/L (≈ 214 µM) and an MIC (Leptosphaeria salvinii) of 3.12 mg/L (≈ 6.67 µM). It also gave an MIC (Pyricularia oryzae) of 3.12 mg/L (≈ 6.67 µM), an MIC (Botrytis cinerea; [7]) of 6.25 mg/L (≈ 13.4 µM) and an MIC (Cochliobolus miyabeanus) of 12.5 mg/L (≈ 26.7 µM). The MIC (Gibberella fujikuroi) was 25 mg/L (≈ 53.5 µM).
With `CCCCCCCCCCCCCCCCCCOCCCOP(=O)([O-])OCC[N+](C)(C)C` [Compound (B) R = C18 H37, reference compound] the MIC [1, 7] was > 100 mg/L, the MIC (Alternaria solani) was > 100 mg/L and the MIC (Leptosphaeria salvinii; [7]) was 50 mg/L (≈ 101 µM). For the same molecule, the MIC (Pyricularia oryzae) was 12.5 mg/L (≈ 25.3 µM), the MIC (Botrytis cinerea; [7]) was 25 mg/L (≈ 50.6 µM) and the MIC (Cochliobolus miyabeanus) was > 100 mg/L. The MIC (Gibberella fujikuroi) was > 100 mg/L.
`CCCCCCCCCCCCCCCCCCOCC(COP(=O)([O-])OCC[N+](C)(C)C)OC` (centres unmarked) [drawing 21, reference compound] was tested, and the Mature myeloid cells [2] was 43.0%, the “NBT (nitro blue tetrazolium) reduction” value [2] was 47.8% and the Phagocytic cells [2] was 39.8%.
`CCCCCCCCCCCCCCOCCCOP(=O)(O)OCCN` [drawing 26 R = C14 H29] gave an MIC (Tetrahymena pyriformis W) of 0.4 mg/L (≈ 1.01 µM).
For `CCCCCCCCCCCCCCOCC(COP(=O)(O)OCCN)OC` (centres unmarked) [drawing 28 R = C14 H29], the zone of inhibition at 3000 µg/mL [3] was 13.5 mm.
`CCCCCCCCCCCCCCCCCCOCC(COP(=O)([O-])OCC[N+](C)(C)C)OC` (centres unmarked) [drawing 23 R = C18 H37] gave an MIC (Tetrahymena pyriformis W) of 1 mg/L (≈ 1.91 µM).
With `CCCCCCCCCCCCCOCC(COP(=O)([O-])OCC[n+]1ccccc1)OC` (centres unmarked) [R = C13 H27, A = drawing 34] the MIC [4] was 3.12 mg/L (≈ 6.59 µM) and the MIC [5] was 12.5 mg/L (≈ 26.4 µM).
In the case of `CCCCCCCCCCCCOCC(COP(=O)([O-])OCC[N+](C)(C)C)OC` (centres unmarked) [R = C12 H25, A = drawing 32, reference compound], the MIC [4] is reported as 6.25 mg/L (≈ 14.2 µM) and the MIC [5] is reported as 25 mg/L (≈ 56.9 µM).
Molecule `CCCCCCCCCCCCCCCCCCOCCCOP(=O)(O)OCCN` [drawing 26 R = C18 H37] has an MIC (Tetrahymena pyriformis W) of 4 mg/L (≈ 8.86 µM).
Molecule `CCCCCCCCCCCCCOCCCOP(=O)([O-])OCC[N+](C)(C)C` [drawing 25 R = C13 H27] has an MIC (Tetrahymena pyriformis W) of 0.2 mg/L (≈ 0.472 µM).
`CCCCCCCCCCCCCOCCCOP(=O)([O-])OCC[N+](C)(C)C` [drawing 29 R = C13 H27] was tested, and the zone of inhibition at 3000 µg/mL [3] was 20 mm.
Molecule `CCCCCCCCCCCCCCCCCCOCC(COP(=O)([O-])OCC[N+](C)(C)C)OC` (centres unmarked) [drawing 19, reference compound] has a Phagocytic cells ([6]; None 2.0 %) of 13.4%, a Morphological change ([6]; None 2.1 %) of 34.7% and a Lysozyme activity ([6]; None 2.2) of 31.1 units/mg protein.
`CCCCCCCCCCCCCCOCC(COP(=O)([O-])OCC[N+](C)(C)C)OC` (centres unmarked) [R = C14 H29, A = drawing 35] gave an MIC [4] of 1.56 mg/L (≈ 3.34 µM) and an MIC [5] of 3.12 mg/L (≈ 6.67 µM).
`CCCCCCCCCCCCCCOCCCOP(=O)([O-])OCC[N+](C)(C)C` [drawing 25 R = C14 H29] gave an MIC (Tetrahymena pyriformis W) of 0.2 mg/L (≈ 0.457 µM).
In the case of `CCCCCCCCCCCCOCCCOP(=O)([O-])OCC[N+](C)(C)C` [drawing 29 R = C12 H25], the zone of inhibition at 3000 µg/mL [3] is reported as 19 mm.
`CCCCCCCCCCCCCOCC(COP(=O)([O-])OCC[N+](C)(C)C)OC` (centres unmarked) [Compound (A) R = C13 H27] showed an MIC [1, 7] of 6.25 mg/L (≈ 13.8 µM), an MIC (Alternaria solani) of 50 mg/L (≈ 110 µM) and an MIC (Leptosphaeria salvinii; [7]) of 6.25 mg/L (≈ 13.8 µM). The MIC (Pyricularia oryzae) was 12.5 mg/L (≈ 27.6 µM), the MIC (Botrytis cinerea) was 12.5 mg/L (≈ 27.6 µM) and the MIC (Cochliobolus miyabeanus) was > 100 mg/L. For the same molecule, the MIC (Gibberella fujikuroi) was > 100 mg/L.
In the case of `CCCCCCCCCCCCCCCCCCOCC(COP(=O)(O)OCCN)OC` (centres unmarked) [drawing 28 R = C18 H37], the zone of inhibition at 3000 µg/mL [3] is reported as < 5 mm.
Molecule `CCCCCCCCCCCCOCCCOP(=O)([O-])OCC[N+](C)(C)C` [Compound (B) R = C12 H25, reference compound] has an MIC [1] of 6.25 mg/L (≈ 15.3 µM), an MIC (Alternaria solani) of 50 mg/L (≈ 122 µM) and an MIC (Leptosphaeria salvinii; [7]) of 25 mg/L (≈ 61 µM). It also gave an MIC (Pyricularia oryzae) of 12.5 mg/L (≈ 30.5 µM), an MIC (Botrytis cinerea; [7]) of 25 mg/L (≈ 61 µM) and an MIC (Cochliobolus miyabeanus) of 6.25 mg/L (≈ 15.3 µM). The MIC (Gibberella fujikuroi) was 100 mg/L (≈ 244 µM).
In the case of `CCCCCCCCCCCCCCOCC(COP(=O)([O-])OCC[N+](C)(C)C)OC` (centres unmarked) [drawing 22], the Mature myeloid cells [2] is reported as 91.3%, the “NBT (nitro blue tetrazolium) reduction” value [2] is reported as 87.0% and the Phagocytic cells [2] is reported as 68.2%.
`CCCCCCCCCCCCCCCCCCOCC(COP(=O)([O-])OCC[N+](C)(C)C)OC` (centres unmarked) [Compound (A) R = C18 H37, reference compound] was tested, and the MIC [1, 7] was > 100 mg/L, the MIC (Alternaria solani) was > 100 mg/L and the MIC (Leptosphaeria salvinii; [7]) was 12.5 mg/L (≈ 23.9 µM). The MIC (Pyricularia oryzae) was 6.25 mg/L (≈ 11.9 µM), the MIC (Botrytis cinerea; [7]) was 25 mg/L (≈ 47.7 µM) and the MIC (Cochliobolus miyabeanus) was > 100 mg/L. The MIC (Gibberella fujikuroi) was > 100 mg/L.
